Data from US20050196753A1, “Human coactivator-associated arginine methyltransferase 1 (hCARM1)” (priority 2002, published 2005).

Biological target: T1, hCARM1 (Homo sapiens, UniProt Q86X55)
T1 construct: evaluate whether the cloned full-length hCARM1 had methylating activity; made in house; host or cells: baculovirus infected insect cells
T1 sequence (Q86X55 1-608): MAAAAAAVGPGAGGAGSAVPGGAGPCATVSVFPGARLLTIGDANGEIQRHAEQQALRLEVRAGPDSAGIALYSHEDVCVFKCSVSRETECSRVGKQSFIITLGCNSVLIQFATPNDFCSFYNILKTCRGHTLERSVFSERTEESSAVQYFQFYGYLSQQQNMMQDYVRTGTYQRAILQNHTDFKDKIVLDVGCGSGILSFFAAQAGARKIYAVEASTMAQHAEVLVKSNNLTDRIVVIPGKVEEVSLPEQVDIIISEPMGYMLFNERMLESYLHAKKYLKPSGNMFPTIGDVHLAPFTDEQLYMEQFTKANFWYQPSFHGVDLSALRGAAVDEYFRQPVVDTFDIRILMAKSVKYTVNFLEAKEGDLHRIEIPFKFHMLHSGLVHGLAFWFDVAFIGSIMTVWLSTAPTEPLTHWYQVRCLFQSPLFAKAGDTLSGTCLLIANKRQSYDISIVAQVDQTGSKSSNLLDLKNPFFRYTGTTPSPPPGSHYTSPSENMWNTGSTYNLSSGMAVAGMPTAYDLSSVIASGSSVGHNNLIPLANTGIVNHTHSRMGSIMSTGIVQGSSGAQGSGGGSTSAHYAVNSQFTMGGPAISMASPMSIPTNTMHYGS
Experiment: Methylation assay: inhibition of hCARM1 mediated methylation of Histone H3
Assay type: biochemical
Settings: Histone H3 substrate, 30° C. for 1 hr, SDS-PAGE/film
Description: Methylation assay protocol: Reactions were performed in IX methylation buffer containing 20 mM Tris.HCl, pH 8.0, 200 mM NaCl and 0.4 mM EDTA. Reactions were assembled with 2.5 ug of Histone H3 and increasing amounts of hCARM1 (0.25 ug, 0.5 ug, 1.25 ug, 2.5 ug, 3.75 ug, 5 ug, or 7.5 ug). A mock reaction where hCARM1 was omitted was used as the negative control. Reactions were incubated at 30° C. for 1 hr. prior to loading on a 10-20% gradient SDS-PAGE. The gel was fixed, dried and exposed to film.
A methylation reaction was performed in order to evaluate whether the cloned full-length hCARM1 had methylating activity. Mouse CARM1 has been previously shown to specifically methylate Histone H3 in vitro and in vivo.

`N[C@@H](CCS)C(=O)O` [homocysteine] was tested, and the “inhibition of hCARM1 mediated methylation” value was “effectively inhibited”.
